These results are taken from US20040253193A1, “Oral rinse for treatment for prevention of bacterial and fungal infection” (priority 2001, published 2004).

The format of data set [1] is physicochemical. The method, then:
Metronidazole (Apo-Metronidazole, Apotex Research Inc.) was prepared by grinding tablets into a powder form and water is added to make a paste. The paste was added to a suitable quantity of nystatin, which was obtained as an aqueous solution from Alimed or PMS PharmaScience (Nilstat™). […] The mouth rinse has a slightly sticky consistency that provides effective contact with the tissues.

The subject of data set [2] is anaerobic gram-negative microorganisms. Particulars: short-term systemic use, administered orally in humans; cited from earlier work.

Consider `Cc1ncc([N+](=O)[O-])n1CCO` [metronidazole], for which the solubility in water result in data set [1] is reported as “does not dissolve in water”. The “effect on anaerobic gram-negative microorganisms and periodontal health” value in data set [2] was “sustained reduction of anaerobic gram-negative microorganisms”.
